Assay results as given in the supplement of paper PMC11451515.

Columns and labels:
Test in all cases: AUC of viability dose-response curve (% viability x log10 dose units); higher = less sensitive
Conditions in all cases: 48 h
NOMO1 = tested on: NOMO1
Outline: (§1)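 Leukemia cells adapted to each medium were seeded in 1536-well plates (500 or 1000 cells/well) and given library compounds in DMSO for 48 h at 37°C. The 11 threefold doses spanned 47 μM to 0.79 nM, and CellTiter-Glo One luminescence was normalised per plate to DMSO and cell-free wells before four-parameter log-logistic fitting on log10 dose. Area under the curve was integrated with the trapezoidal rule, scaling curves above full viability and removing curves that failed quality control.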

SEM cells = tested on: SEM cells
Outline: as §1

P12-Ichikawa = tested on: P12-Ichikawa
Outline: as §1

[1] = RPMI 5 mM glucose + 10% dialyzed FBS

Row | SMILES | AUC of viability dose-response curve (NOMO1; HPLM + 10% dialyzed FBS) | AUC of viability dose-response curve (NOMO1; RPMI 5 mM glucose + 10% FBS) | AUC of viability dose-response curve (NOMO1; [1]) | AUC of viability dose-response curve (SEM cells; HPLM + 10% dialyzed FBS) | AUC of viability dose-response curve (SEM cells; RPMI 5 mM glucose + 10% FBS) | AUC of viability dose-response curve (SEM cells; [1]) | AUC of viability dose-response curve (P12-Ichikawa; HPLM + 10% dialyzed FBS) | AUC of viability dose-response curve (P12-Ichikawa; RPMI 5 mM glucose + 10% FBS) | AUC of viability dose-response curve (P12-Ichikawa; [1])
1 | C[C@]12CC[C@H]3[C@@H](C\C=C/4C[C@@H](O)CC[C@]34C)[C@@H]1CCC2=O | 439 | 448 | 460 | 468 | 454 | 462 | 449 | 438 | 454
2 | CC(O)(C#Cc1ccc2c(c1)N(c1nc(N)ncc1Cl)CC2)c1nccs1 (configuration not stated) | 455 | 467 | 468 | 469 | 430 | 465 | 477 | 468 | 464
3 | COC[C@H](c1ccc(C(F)(F)F)cc1)N1CCN(C2(C)CCN(C(=O)c3c(C)ncnc3C)CC2)C[C@H]1C.O=C(O)/C=C\C(=O)O | 409 | 411 | 424 | 445 | 410 | 450 | 469 | 454 | 467
4 | CN1C(=O)C[C@H](C(=O)N[C@@H](Cc2cnc[nH]2)C(=O)N2CCC[C@H]2C(N)=O)NC1=O | 462 | 463 | 435 | 456 | 435 | 459 | 462 | 464 | 470
5 | CCC(=C/[C@H](C)C/C=C/C(C)=C/[C@@H](C)C(=O)[C@@H](C)[C@H](O)[C@@H](C)C/C(C)=C/C(=O)O)/C=C/[C@@H]1OC(=O)C=C[C@@H]1C | 351 | 365 | 355 | – | – | – | 361 | 355 | 359
6 | CN(C)CCOc1ccc(-c2nc(-c3ccncc3)c(-c3ccc4c(c3)CC/C4=N\O)[nH]2)cc1 | 450 | 465 | 437 | 458 | 455 | 466 | 456 | 454 | 452
7 | CC[C@@]1(O)C(=O)OC\C2=C1\C=C\3N(CC4=C3N=C5C=CC=CC5=C4)C2=O | 248 | 241 | 246 | 190 | 158 | 165 | 172 | 164 | 161
8 | O=C1Nc2ccc(I)cc2/C1=C/c1cc(Br)c(O)c(Br)c1 | 469 | 457 | 448 | 466 | 457 | 451 | 469 | 468 | 458
9 | NCCCCNCCCN | 438 | 460 | 460 | 373 | 427 | 388 | 458 | 434 | 445
10 | Cc1cc(Nc2cc(CN3CCOCC3)c3nc(C)c(Cc4ccc(Cl)cc4F)n3n2)[nH]n1 | 429 | 424 | 422 | 342 | 317 | 310 | 436 | 428 | 439
11 | C/C(O)=C(\C#N)C(=O)Nc1cc(Br)ccc1Br | 420 | 439 | 442 | 441 | 442 | 434 | 462 | 469 | 449
12 | CC/1=C(/C(CC(=O)N1)C2=CC=C(C=C2)C(F)(F)F)C(=O)NC3=C(F)C=C4[NH]N=CC4=C3 (configuration not stated) | 422 | 389 | 415 | 405 | 418 | 411 | 442 | 450 | 448
13 | C=CC(=O)Nc1cccc(Nc2nc(NC3CCC(N(C)C)CC3)nc3c2ncn3C(C)C)c1 (configuration not stated) | 348 | 361 | 350 | 319 | 340 | 320 | 366 | 366 | 377
14 | CCOC(=O)c1cncn1[C@H](C)c1ccccc1 | 443 | 477 | 442 | 438 | 468 | 435 | 463 | 452 | 466
15 | COC1=C2C[C@@H](C)C[C@H](OC)[C@H](O)[C@@H](C)/C=C(\C)[C@H](OC(N)=O)[C@@H](OC)/C=C/C=C(\C)C(=O)NC(=CC1=O)C2=O | 430 | 438 | 440 | 402 | 396 | 395 | 416 | 410 | 399
16 | Nc1nnc(-c2cccc(Cl)c2Cl)c(N)n1 | – | – | – | 425 | 402 | 418 | – | – | –
17 | CC(C)c1ccc(Cn2ccc3c4c(N)nc(NC5CC5)nc4ccc32)cc1 | 339 | 409 | 384 | 343 | 383 | 390 | 343 | 392 | 368
18 | CN[C@@H](C)C(=O)N[C@H]1CN(C(=O)CC(C)C)CC[C@H]2CC[C@@H](C(=O)NC(c3ccccc3)c3ccccc3)N2C1=O | 317 | 336 | 361 | 431 | 406 | 423 | 411 | 406 | 424
19 | CC(/C=C/C(=O)NO)=C\[C@@H](C)C(=O)c1ccc(N(C)C)cc1 | 337 | 339 | 336 | 290 | 295 | 292 | 325 | 315 | 316
20 | COc1ncnc(N[S+](=O)([O-])c2ccc(N)cc2)c1OC | 348 | 394 | 404 | – | – | – | 341 | 320 | 316
21 | Cn1c(=O)n(-c2ccc(C(C)(C)C#N)cc2)c2c3cc(-c4cnc5ccccc5c4)ccc3ncc21 | 344 | 354 | 315 | – | – | – | 337 | 315 | 325
22 | Cn1cc(/C=C2\C(=O)Nc3cccnc32)c2ccccc21 | 464 | 451 | 449 | 430 | 421 | 415 | 414 | 442 | 437
23 | Nc1cc(C(F)(F)F)c(-c2cc(N3CCOCC3)nc(N3CCOCC3)n2)cn1 | 317 | 340 | 334 | 307 | 283 | 299 | 328 | 334 | 329
